Assay results taken from patent US20070128217A1 (priority 2003, published 2007).

Tests used:
[1] = tested on: control sera (pooled serum of ten healthy LUMC hospital workers; commercial negative donor pooled serum from the Dutch bloodbank); type: binding, human; set-up: Binding of Control serum LUMC to linear peptides / Binding of Control serum Blood-bank to linear peptides / Binding of Control serum LUMC to looped peptides / Binding of Control Serum Blood-Bank to Looped peptides / Binding of Control serum LUMC to linear peptides of the protein M of SARS-CoV Urbani / Binding of Control serum Blood-bank to linear peptides of the protein M of SARS-CoV Urbani / Binding of Control serum LUMC to looped peptides of the protein M of SARS-CoV Urbani / Binding of Control Serum Blood-Bank to Looped peptides of the protein M of SARS-CoV Urbani: unit not given here
[2] = tested on: antibodies in sera from SARS patients (sera 1a, 1b, 2, 6, 37, 62, London, SARS-yellow, SARS-green); type: binding, human; set-up: Binding of serum 6 to linear peptides of protein X1 of SARS-CoV Urbani / Binding of serum 37 to linear peptides of protein X1 of SARS-CoV Urbani / Binding of serum 6 to looped/cyclic peptide (PEPSCAN-ELISA) / Binding of serum 37 to looped/cyclic peptide (PEPSCAN-ELISA) / Binding of serum 37 to looped/cyclic peptides of protein X1 of SARS-CoV Urbani / Binding of serum 6 to linear peptides of protein X2 / Binding of serum 37 to linear peptides of protein X2 / Binding of serum 37 to looped/cyclic peptides of protein X2 of SARS-CoV Urbani / Binding of serum 6 to linear peptides of protein M of SARS-CoV Urbani / Binding of serum 37 to linear peptides of protein M of SARS-CoV Urbani / Binding of serum 6 to looped/cyclic peptides of protein M of SARS-CoV Urbani / Binding of serum 37 to looped/cyclic peptides of protein M of SARS-CoV Urbani / Binding of serum 6 to linear peptides of protein X3 of SARS-CoV Urbani / Binding of serum 37 to linear peptides of protein X3 of SARS-CoV Urbani / Binding of serum 37 to looped/cyclic peptides of protein X3 of SARS-CoV Urbani / Binding of serum 6 to linear peptides of protein X4 of SARS-CoV Urbani / Binding of serum 37 to linear peptides of protein X4 of SARS-CoV Urbani / Binding of serum 37 to looped/cyclic peptides of protein X4 of SARS-CoV Urbani / Binding of serum 6 to linear peptides of protein X5 of SARS-CoV Urbani / Binding of serum 37 to linear peptides of protein X5 of SARS-CoV Urbani / Binding of serum 37 to looped/cyclic peptides of protein X5 of SARS-CoV Urbani / Binding of serum 6 to linear peptides of protein N of SARS-CoV Urbani / Binding of serum 37 to linear peptides of protein N of SARS-CoV Urbani / Binding of serum 6 to linear peptide (PEPSCAN-ELISA) / Binding of serum 1a to looped/cyclic peptides of protein N of SARS-CoV Urbani / Binding of serum 1b to looped/cyclic peptides of protein N of SARS-CoV Urbani / Binding of serum 2 to looped/cyclic peptides of protein N of SARS-CoV Urbani / Binding of serum 6 to looped/cyclic peptides of protein N of SARS-CoV Urbani / Binding of serum 37 to looped/cyclic peptides of protein N of SARS-CoV Urbani / Binding of serum 62 to looped/cyclic peptides of protein N of SARS-CoV Urbani / Binding of serum London to looped/cyclic peptides of protein N of SARS-CoV Urbani / Binding of serum SARS-green to looped/cyclic peptides of protein N of SARS-CoV Urbani: unit not given here
[3] = tested on: recombinant human anti-SARS-CoV antibody 03-018; type: binding; set-up: Binding of antibody 03-018 to linear peptides of the N protein of SARS-CoV Urbani / Binding of antibody 03-018 to looped/cyclic peptides of the N protein of SARS-CoV Urbani: unit not given here
[4] = tested on: rabbit serum obtained by immunizing a rabbit with the SARS-CoV strain Frankfurt 1; type: binding; set-up: Binding of a rabbit serum to linear peptides / Binding of a rabbit serum to looped peptides / Rabbit serum linear peptides / Rabbit serum looped peptides / Binding of a rabbit serum to linear peptides of protein N of SARS-CoV Urbani (Rabbit serum linear peptides) / Binding of a rabbit serum to looped/cyclic peptides of protein N of SARS-CoV Urbani (Rabbit serum looped peptides): unit not given here

Row | Sequence | Binding of Control Serum Blood-Bank to Looped peptides [1] | Binding of Control serum Blood-bank to linear peptides [1] | Binding of Control serum LUMC to linear peptides [1] | Binding of Control serum LUMC to looped peptides [1] | Binding of serum 1a to linear peptides of protein N of SARS-CoV Urbani [2] | Binding of serum 1a to looped/cyclic peptides of protein N of SARS-CoV Urbani [2] | Binding of serum 1b to linear peptides of protein N of SARS-CoV Urbani [2] | Binding of serum 1b to looped/cyclic peptides of protein N of SARS-CoV Urbani [2] | Binding of serum 2 to linear peptides of protein N of SARS-CoV Urbani [2] | Binding of serum 2 to looped/cyclic peptides of protein N of SARS-CoV Urbani [2] | Binding of serum 6 to linear peptides of protein N of SARS-CoV Urbani [2] | Binding of serum 6 to looped/cyclic peptides of protein N of SARS-CoV Urbani [2] | Binding of serum 37 to linear peptides of protein N of SARS-CoV Urbani [2] | Binding of serum 37 to looped/cyclic peptides of protein N of SARS-CoV Urbani [2] | Binding of serum 62 to linear peptides of protein N of SARS-CoV Urbani [2] | Binding of serum 62 to looped/cyclic peptides of protein N of SARS-CoV Urbani [2] | Binding of serum London to linear peptides of protein N of SARS-CoV Urbani [2] | Binding of serum London to looped/cyclic peptides of protein N of SARS-CoV Urbani [2] | Binding of serum SARS-green to linear peptides of protein N of SARS-CoV Urbani [2] | Binding of serum SARS-green to looped/cyclic peptides of protein N of SARS-CoV Urbani [2] | also measured
1 | FTALTQHGKEELRFP | 0.5 | 0.7 | 0.7 | 0.3 | 0.3 | 0.2 | 0.2 | 0.1 | 0.3 | 0.3 | 0.2 | 0.1 | 0.8 | 0.4 | 0.7 | 0.3 | 0.5 | 0.2 | 0.7 | 0.0 | Binding of serum SARS-yellow to linear peptides of protein N of SARS-CoV Urbani [2]: 0.6; Binding of serum SARS-yellow to looped/cyclic peptides of protein N of SARS-CoV Urbani [2]: 0.1; Binding of antibody 03-018 to linear peptides of the N protein of SARS-CoV Urbani [3]: 0.1; Binding of antibody 03-018 to looped/cyclic peptides of the N protein of SARS-CoV Urbani [3]: 0.2; Binding of a rabbit serum to linear peptides of protein N of SARS-CoV Urbani (Rabbit serum linear peptides) [4]: 0.2; Binding of a rabbit serum to looped/cyclic peptides of protein N of SARS-CoV Urbani (Rabbit serum looped peptides) [4]: 0.1
2 | SLPYGANKEGIVWVA | 0.6 | 0.9 | 0.7 | 0.6 | 0.3 | 0.3 | 0.1 | 0.2 | 0.2 | 0.5 | 0.2 | 0.3 | 0.8 | 0.7 | 1.2 | 0.6 | 0.6 | 0.4 | 0.5 | 0.3 | Binding of serum SARS-yellow to linear peptides of protein N of SARS-CoV Urbani [2]: 0.7; Binding of serum SARS-yellow to looped/cyclic peptides of protein N of SARS-CoV Urbani [2]: 0.4; Binding of antibody 03-018 to linear peptides of the N protein of SARS-CoV Urbani [3]: 0.1; Binding of antibody 03-018 to looped/cyclic peptides of the N protein of SARS-CoV Urbani [3]: 0.2; Binding of a rabbit serum to linear peptides of protein N of SARS-CoV Urbani (Rabbit serum linear peptides) [4]: 0.2; Binding of a rabbit serum to looped/cyclic peptides of protein N of SARS-CoV Urbani (Rabbit serum looped peptides) [4]: 0.3
